Experimental data published in patent US7687546B2, “Quaternary ammonium compound, process for producing the same, therapeutic agent for cerebrovascular disorder, and therapeutic agent for heart disease” (Activus Pharma Co., Ltd., priority 2004, dated 2010).
Read-outs that look alike come from different tables or passages of the source.

How the values were obtained:
guinea pigs [1] = experiment: Study of arrhythmia-inducing action in guinea pigs (without ouabain); conditions: no ouabain
[2] = tested on: middle cerebral artery occlusion and reperfusion model; experiment: Cerebral infarction model: middle cerebral artery occlusion and reperfusion (infarct area, neurological symptoms, motor function); format: in vivo, rats (Crj: Wistar strain); design: Improvement of neurological symptoms* (total score): scale not given here; conditions: rats, average of 10 animals; for Improvement of neurological symptoms* (total score) / Improvement of motor function (time stayed on rotor rod: seconds): single i.v. dose 3 mg/kg; for Improvement of neurological symptoms* (total score): 24 hours after occlusion, total score per Table 4, smaller = greater effect; for Improvement of motor function (time stayed on rotor rod: seconds): rotor rod 14 rotations per minute, maximum 1 minute; for Cerebral infarction reduction rate (%): single intravenous dose 3 mg/kg immediately before reperfusion, vs physiological saline group, bigger = greater effect
Description: In this example, a cerebral infarction model was prepared using rats in which reperfusion injury was induced by ischemia and then reperfusion of the middle cerebral artery using the obturator method. The efficacy of compounds of the present invention following single-dose intravenous administration at dose of 3 mg/kg was evaluated in terms of infarct area, neurological symptoms and motor function.
In addition, Edaravone (trade name, Mitsubishi Pharma Corporation) was used as a reference compound. The compounds of the present invention were stored in a refrigerator under protection from light, while Edaravone (trade name) was stored at room temperature under protection from light.
Compounds of present invention: 2 mL of physiological saline was added directly to tube containing 3 mg aliquots of a compound of the present invention to dissolve and prepare solutions having a concentration of 3 mg/2 mL. These samples were prepared at the time of use.
Edaravone: Since Edaravone is an injectable solution having a concentration of 30 mg/20 mL, the required amounts were divided up and used.
Rats: Crj: Wistar strain, males, age 7 weeks (Charles River Laboratories Japan, Inc.)
The test compounds were administered in a single dose into the tail vein using a 1 mL syringe and 27 G injection needle immediately before the reperfusion.
The rats were anesthetized by intraperitoneal administration of sodium pentobarbital at dose of 40 mg/kg (Nembutal (trade name), Dainippon Pharmaceutical Co., Ltd.), and a middle cerebral artery occlusion and reperfusion model was prepared in accordance with the method of Koizumi et al. (Non-Patent Document 2). Namely, the animals were warmed to 37° C. and held in the dorsal position while breathing spontaneously. A midline cervical incision was made, and then the right external carotid artery and right internal carotid artery were separated without damaging the vagus nerve. The right common carotid artery and right external carotid artery were ligated, and a suture was attached to the origin of the internal carotid artery in preparation for ligation and maintenance of occlusion following insertion of an obturator into the internal carotid artery. Moreover, a small incision was made in the right common carotid artery, an obturator provided with an approximately 17 mm silicon-coated suture was inserted into the internal carotid artery, and the internal carotid artery was ligated. Two hours after ligation, the obturator was removed under unanesthesia to reperfuse. Furthermore, flexion of the contralateral forelimb was confirmed 30 minutes after occlusion of the middle cerebral artery.
The following neurological symptoms were evaluated 24 hours after occlusion of the middle cerebral artery according to the evaluation method of Petullo et al. (Non-Patent Document 3). Neurological symptoms consisted of flexion of the forelimbs, torso twisting, resistance when pushing on the back of the right or left shoulder (Lateral push), circling, return of the hindlimb to the floor when lifted from the floor (Hindlimb placement), behavior when the head is faced downward on an angle (Inverted angle board) and a locomotor activity test.
Flexion of the forelimbs: flexion of the forelimbs was observed when the animals were lifted up by the tail.
Torso twisting: Torso twisting was observed when the animals were lifted up by the tail.
Lateral push: Resistance was observed when pushing on the back of the right or left shoulder.
Hindlimb placement: The animals were observed as to whether or not the hindlimb immediately returns to the floor after being lifted from the floor when placed on a horizontal floor.
locomotor activity: locomotor activity was observed when the animals were placed in a polycarbonate cage.
The aforementioned tests were scored based on the criteria described in the following documents, followed by calculation of total scores (see Table 4 “Neurological Symptom Evaluation Criteria and Scores”). […]

[3] = tested on: model of myocardial ischemia reperfusion injury; experiment: Model of myocardial ischemia-reperfusion injury in dogs; format: in vivo; conditions: 3 mg/kg into the femoral vein 10 minutes before 20 minutes coronary occlusion, then reperfusion
Description: In order to confirm the efficacy of compounds of the present invention on myocardial infarction and arrhythmia caused by myocardial infarction, a pharmacological study was conducted using a model of myocardial ischemia reperfusion injury in dogs for the compounds used in Example 1.
Dogs having body weights of approximately 10 kg were anesthetized with pentobarbital (trade name) (30 mg/ml/kg) followed by shaving the surgical site after starting artificial respiration. The femoral vein and femoral artery were separated followed by cannulation. The femoral vein was used as the administration route for the test substances, while the femoral artery was used to measure blood pressure.
Next, after opening the left chest, making an incision in the pericardium and exposing the left ventricle, the left coronary artery was separated. A silk suture was passed through the coronary artery to occlude, followed by the attachment of an electromagnetic flow meter probe for measuring blood flow.
In addition, a pair of ultrasound crystal probes was fixed in position to measure changes in ventricular wall length as a indicator of myocardial contractile force, and indwelling needle was installed for measuring left intraventricular pressure. Compounds of the present invention were administered into the femoral vein at 3 mg/kg (15% physiological saline solution) followed 10 minutes later by occluding the coronary artery for 20 minutes, and subsequently reperfusing the coronary artery. Myocardial contraction following ischemia-reperfusion was compared for each group based on a value of 100 for myocardial contraction prior to ischemic reperfusion. In addition, comparisons were also made with a solvent control group administered only physiological saline.

[4] = tested on: model of myocardial ischemia-reperfusion injury; experiment: Model of myocardial ischemia-reperfusion injury in rats; format: in vivo; conditions: 3 mg/kg i.v. 5 minutes before 5 minutes coronary ligation, 8 rats per group; for Incidence of Ventricular Fibrillation (%) / Incidence of Ventricular Tachycardia (%): monitored 5 minutes after reperfusion; for Mortality Rate (%): then reperfusion
[5] = tested on: ouabain-induced arrhythmia model; experiment: Ouabain-induced arrhythmia model in guinea pigs; format: in vivo, guinea pigs (Hartley strain); conditions: dose 3 mg/kg i.v. immediately before ouabain infusion 3 μg/0.1 ml/min
Text: After guinea pigs (Hartley strain, age 6 weeks) were anesthetized with urethane, induction electrodes were attached to the hind limbs and fore limbs, and standard 2-lead electrocardiograms were monitored with an animal electrocardiogram analysis system (ECG-01, Japan Energy). After confirming that the waveforms of the electrocardiogram and heart rate were within the normal range, an incision was made in the epidermis of the neck followed by inserting a breathing tube into the trachea and cannulating a polyethylene tube into the left external jugular vein and left common carotid artery.
Immediately after administering a compound of the present invention dissolved in a physiological saline solution into the right external jugular vein, ouabain was continuously infused at 3 μg/0.1 ml/min through the cannulated polyethylene tube into the left external jugular vein using a syringe pump (Atom Syringe Pump 1235 (trade name), Atom Medical Corporation).
In addition, the polyethylene tube cannulated in the left common carotid artery was connected to a pressure transducer (P23XL, Gould Electronics), and fed to a pressure processor signal conditioner (TA-11, Gould Electronics) to record blood pressure and heart rate on a thermal plate recorder.
The results were assessed by comparing the dose (μg/kg) of ouabain administered until the appearance of arrhythmia and occurrence of cardiac arrest (arrhythmia is not induced even if a large dose of ouabain is administered if antiarrhythmic effects are high). Furthermore, a solvent dose group (administered only physiological saline in an amount equal to that of the test drug groups), and a positive control group administered a typical antiarrhythmic disopyramide phosphate (physiological saline solution), were also provided.

guinea pigs [6] = conditions: guinea pig, in vivo
[7] = dose 3 mg/kg, up to 1 hour after administration
[8] = dose 10 mg/kg, up to 1 hour after administration
[9] = dose 3.9 mg/kg, up to 1 hour after administration

Row | SMILES | Improvement of neurological symptoms* (total score) [2] | Improvement of motor function (time stayed on rotor rod: seconds) [2] [s] | Cerebral infarction reduction rate (%) [2] [%] | Myocardial Contraction (%) (Based on a value of 100% for prior to ischemia-reperfusion) [3] | Incidence of Ventricular Fibrillation (%) [4] [%] | Incidence of Ventricular Tachycardia (%) [4] [%] | Mortality Rate (%) [4] [%] | Ouabain (μg/kg) administered until Cardiac arrest [5] [µg/kg] | Ouabain (μg/kg) administered until appearance of Arrhythmia [5] [µg/kg] | Occurrence of Arrhythmia (guinea pigs [6]; 3 mg/kg) | Occurrence of cardiac arrest (guinea pigs [6]; 3 mg/kg) | Occurrence of Arrhythmia (guinea pigs [6]; 10 mg/kg) | Occurrence of cardiac arrest (guinea pigs [6]; 10 mg/kg) | also measured
1 | C[N+](C)(C)CCOc1ccc(C(=O)[O-])cc1 [Compound 3, 4-(2-trimethylammonio-ethoxy)-benzoate] | 6.20 | 50.1 | 48.7 | 81 | 12.5 | 62.5 | 0 | 235 | 169 | – | – | – | – | Occurrence of Arrhythmia (guinea pigs [1]; [7]): No; Occurrence of cardiac arrest (guinea pigs [1]; [7]): No; Occurrence of Arrhythmia (guinea pigs [1]; [8]): No; Occurrence of cardiac arrest (guinea pigs [1]; [8]): No
2 | CC(C)N(CCC(C(N)=O)(c1ccccc1)c1ccccn1)C(C)C (stereo not drawn) [Disopyramide phosphate, disopyramide phosphate, reference compound] | – | – | – | – | – | – | – | 247 | 175 | – | – | – | – | Occurrence of Arrhythmia (guinea pigs [1]; [9]): No; Occurrence of cardiac arrest (guinea pigs [1]; [9]): No; Occurrence of cardiac arrest (guinea pigs [1]; dose 12.9 mg/kg (10 mg/kg as disopyramide)): Yes; Occurrence of cardiac arrest (guinea pigs [1]; dose 12.9 mg/kg (10 mg/kg as disopyramide), listed as disopyramide phosphate): cardiac arrest occurred immediately after administration
3 | C[N+](C)(C)CCOc1ccc(O)c(O)c1C(=O)[O-] [Compound 33] | 5.90 | 52.1 | 52.6 | 82 | 12.5 | 50.0 | 0 | 239 | 171 | No | No | No | No | –
4 | C[N+](C)(C)CCOc1cc(O)cc(C(=O)[O-])c1O [Compound 28] | 5.85 | 53.1 | 54.7 | 76 | 12.5 | 62.5 | 12.5 | 267 | 173 | No | No | No | No | –
5 | CC[N+](CC)(CC)CCOc1ccc(S(=O)(=O)[O-])c(O)c1 [Compound 71] | 6.30 | 48.8 | 46.3 | 72 | 12.5 | 62.5 | 0 | 239 | 171 | No | No | No | No | –
6 | C[N+](C)(C)CCOc1ccc(S(=O)(=O)[O-])cc1 [Compound 60] | 6.65 | 44.2 | 39.0 | 88 | 25.0 | 62.5 | 0 | 243 | 170 | No | No | No | No | –
7 | C[N+](C)(C)CC(O)Oc1ccc(O)c(C(=O)[O-])c1 (stereo not drawn) [Compound 56] | 6.55 | 45.4 | 40.7 | 71 | 12.5 | 62.5 | 25.0 | 244 | 172 | No | No | No | No | –
